How the values were obtained:
barnyardgrass = test: Test Example 3: paddy pot test, application under submerged conditions; assay type: in vivo, Echinochloa crus-galli L.; settings: submerged application at 0.5 leaf stage, visually observed 14 days after application, 0 = non-treated, 100 = complete kill
Description: (§1) Paddy field soil was put into a 1/1,000,000 ha pot, and seed of barnyardgrass and japanese bulrush were sown and slightly covered with soil. Then, the pot was left to stand still in a greenhouse in a state where the depth of flooding water was from 0.5 to 1 cm, and one day or two days later, tubers of japanese ribbon wapato were planted. Thereafter, the depth of flooding water was maintained at a level of from 3 to 4 cm, and when barnyardgrass and japanese bulrush reached a 0.5 leaf stage and japanese ribbon wapato reached a primary leaf stage, an aqueous diluted solution of a wettable powder or emulsifiable concentrate having the compound of the present invention formulated in accordance with a usual formulation method, was uniformly applied under submerged conditions by a pipette so that the dose of the active ingredient would be at a predetermined level. On the 14 days after the application of the herbicide, the growth of barnyard grass, japanese burlrush and japanese ribbon wapato was visually observed and on the 21st day after the application of the herbicide, the growth of rice was visually observed, and the herbicidal effects were evaluated by the growth-controlling degrees (%) ranging from 0 (equivalent to the non-treated plot) to 100 (complete kill), whereby the results shown in Table 5 were obtained.

japanese bulrush = test: as above; assay type: in vivo, Scirpus juncoides; settings: submerged application at 0.5 leaf stage, visually observed 14 days after application, 0 = non-treated, 100 = complete kill
Description: as §1

japanese ribbon wapato = test: as above; assay type: in vivo, Sagittaria pygniaea; settings: submerged application at primary leaf stage, visually observed 14 days after application, 0 = non-treated, 100 = complete kill
Description: as §1

rice (var. Nihonbare) = test: Test Example 3: paddy pot test, transplanted rice; assay type: in vivo, Oryza sativa L.; settings: applied 4th day after transplantation, visually observed 21st day after application, 0 = non-treated, 100 = complete kill
Description: as §1, with “On the other hand, paddy field soil was put into a 1/1,000,000 ha pot and puddled and leveled, and the depth of flooding water was from 3 to 4 cm. Next day, rice (var. Nihonbare) of 2 leaf stage was transplanted in a depth of 3 cm. On the 4th day after the transplantation, the compound of the present invention was applied in the same manner as described above. On the 14 days” for “On the 14 days”

Structure (SMILES) | Growth controlling degree (%) Barnyardgrass (barnyardgrass; active ingredient 250 g/ha) | Growth controlling degree (%) Japanese bulrush (japanese bulrush; active ingredient 250 g/ha) | Growth controlling degree (%) Japanese ribbon wapato (japanese ribbon wapato; active ingredient 250 g/ha) | Growth controlling degree (%) Rice (rice (var. Nihonbare); active ingredient 250 g/ha) | Growth controlling degree (%) Barnyardgrass (barnyardgrass; active ingredient 500 g/ha) | Growth controlling degree (%) Japanese bulrush (japanese bulrush; active ingredient 500 g/ha) | Growth controlling degree (%) Japanese ribbon wapato (japanese ribbon wapato; active ingredient 500 g/ha) | Growth controlling degree (%) Rice (rice (var. Nihonbare); active ingredient 500 g/ha)
CC(C)C(c1cnccc1C(F)(F)F)N(C)C(=O)Cc1cc(Cl)cc(Cl)c1 (stereo not drawn) [I-91] | 90% | 20% | 20% | 0% |  |  |  | 
CC(C)C(c1cccnc1)N(C)C(=O)Cc1ccccc1 (stereo not drawn) [I-93] |  |  |  |  | 60% | 95% | 30% | 0%
CCN(C(=O)Cc1cc(F)ccc1F)C(c1cnccc1C(F)(F)F)C(C)C (stereo not drawn) [I-98] | 100% | 80% | 40% | 10% |  |  |  | 
Cc1ccc(F)c(CC(=O)N(C)C(c2cnccc2C(F)(F)F)C(C)C)c1 (stereo not drawn) [I-108] | 98% | 100% | 60% | 10% |  |  |  | 
CC(C)C(c1cnccc1C(F)(F)F)N(C)S(=O)(=O)c1ccc(C(F)(F)F)cc1 (stereo not drawn) [I-146] | 98% | 80% | 0% | 20% |  |  |  | 
CC(C)C(c1cnccc1C(F)(F)F)N(C)C(=O)C=COc1ccccc1 (stereo not drawn) [I-166, N-methyl-N-[2-methyl-1-(4-trifluoromethylpyridin-3-yl)propyl]3-phenoxypropenamide] | 100% | 95% | 0% | 0% |  |  |  | 
CC(C)C(c1cnccc1C(F)(F)F)N(C)C(=O)C=Cc1ccc(Cl)cc1 (stereo not drawn) [I-171] | 60% | 98% | 0% | 0% |  |  |  | 
CC(C)C(c1cnccc1C(F)(F)F)N(C)C(=O)C=Cc1cccs1 (stereo not drawn) [I-173] | 90% | 95% | 30% | 0% |  |  |  | 
CC(=CC(=O)N(C)C(c1cnccc1C(F)(F)F)C(C)C)c1ccccc1 (stereo not drawn) [I-174] | 10% | 95% | 0% | 0% |  |  |  | 
CC(C)C(c1cnccc1C(F)(F)F)N(C)C(=O)C=C1CCCC1 (stereo not drawn) [I-176] | 98% | 98% | 0% | 0% |  |  |  | 
CC(C)C(c1cnccc1C(F)(F)F)N(C)C(=O)C=C1CCCCC1 (stereo not drawn) [I-177] | 60% | 98% | 20% | 20% |  |  |  | 
CC(C)C(c1cnccc1C(F)(F)F)N(C)C(=O)C=Cc1cccc(Br)c1 (stereo not drawn) [I-179] |  |  |  |  | 90% | 90% | 30% | 10%
CC(C)C(c1cnccc1C(F)(F)F)N(C)C(=O)C=Cc1ccc2ccccc2c1 (stereo not drawn) [I-188] |  |  |  |  | 100% | 0% | 0% | 0%
CC(C)C(c1cnccc1C(F)(F)F)N(C)C(=O)C1CCCC1 (stereo not drawn) [I-212] | 100% | 98% | 80% | 30% |  |  |  | 
CCN(C(=O)N(C)C(c1cnccc1C(F)(F)F)C(C)C)c1ccccc1 (stereo not drawn) [I-233] |  |  |  |  | 95% | 90% | 40% | 10%
CC(C)C(c1cnccc1C(F)(F)F)N(C)C(=O)COc1ccccc1Cl (stereo not drawn) [I-235] | 100% | 90% | 60% | 0% |  |  |  | 
CC(C)C(c1cnccc1C(F)(F)F)N(C)C(=O)COc1ccc(Cl)cc1Cl (stereo not drawn) [I-236] | 95% | 80% | 70% | 0% |  |  |  | 
CC(C)C(c1cnccc1C(F)(F)F)N(C)C(=O)COc1ccc([N+](=O)[O-])cc1 (stereo not drawn) [I-237] | 95% | 95% | 40% | 0% |  |  |  | 
Cc1cccc(OCC(=O)N(C)C(c2cnccc2C(F)(F)F)C(C)C)c1 (stereo not drawn) [I-238] | 95% | 95% | 60% | 20% |  |  |  | 
Cc1ccccc1OCC(=O)N(C)C(c1cnccc1C(F)(F)F)C(C)C (stereo not drawn) [I-240] | 100% | 100% | 50% | 0% |  |  |  | 
CC(C)C(c1cnccc1C(F)(F)F)N(C)C(=O)COc1cccc(Cl)c1 (stereo not drawn) [I-247] | 100% | 95% | 0% | 0% |  |  |  | 
CC(C)C(c1cnccc1C(F)(F)F)N(C)C(=O)COc1ccc(Cl)cc1 (stereo not drawn) [I-248] | 98% | 98% | 20% | 0% |  |  |  | 
CC(C)C(c1cnccc1C(F)(F)F)N(C)C(=O)COc1c(F)c(F)c(F)c(F)c1F (stereo not drawn) [I-252] | 95% | 98% | 0% | 0% |  |  |  | 
CC(C)C(c1cnccc1C(F)(F)F)N(C)C(=O)COc1cc([N+](=O)[O-])c(Cl)cc1Cl (stereo not drawn) [I-253] | 90% | 20% | 0% | 10% |  |  |  | 

— patent US20050239656A1, “Pyridine compounds or salts thereof and herbicides containing the same” (priority 2002, published 2005)
